The nature of data set [1]: Lipophilicity, logD of the compound in octanol/buffer at pH 7.4 by shake flask method. In kind it is physicochemical.
The nature of data set [2]: Volume of distribution in Han-wistar rat at […], iv. In kind it is ADME. Particulars: in vivo, dose 1.5 µmol/kg.
Data set [3] in a line: Dissociation constant, pKa of the compound. In kind it is physicochemical.
Data set [4] can be described thus: Volume of distribution in SCID mouse at 5 umol/kg, iv. In kind it is ADME. Particulars: in vivo, dose 5 µmol/kg.
A short description of data set [5]: Apparent permeability of compound from apical to basolateral side in human Caco-2 cells. In kind it is ADME, cell-based. (Caco-2 cells form a polarised layer with tight junctions and transporters.)
A short description of data set [6]: Drug metabolism in SCID mouse plasma assessed as 1-Isopropyl-5-(2-(piperidin-4-yl)-1H-pyrrolo[2,3-b]pyridin-4-yl)-pyridin-2(1H)-one metabolite formation at 0.5 mg/kg, iv administered as cassette dose. It is filed as ADME, organism-based. The following applies: in vivo.

Usually logD stands for lipophilicity at a set pH, counting ionised and neutral species. The low end stands for a more hydrophilic compound, the high end for a more lipophilic compound. For orientation: Vd means a proportionality between amount in the body and measured concentration, not a real space. High values mean extensive tissue distribution, low ones confinement near the circulation. As usually defined, the pKa is the pH at which an ionisable group is half protonated. Lower therefore signals a stronger acid or weaker base. Consider `COc1cc(F)ccc1-c1ccnc2[nH]c(C3CCNCC3)cc12`, for which, in data set [1], the logD amounted to 1.2. In addition, the volume of distribution (Vd) came out at 10 L/kg in data set [2] and 14 L/kg in data set [4]. Further, the pKa in data set [3] was 10.2.
In the case of `COc1cc(F)ccc1-c1ccnc2[nH]c(C3CCN(C)CC3)cc12`, the logD in data set [1] was 2.6. This compound yielded a Vd in data set [2] of 5.2 L/kg. In data set [3], this compound registered a pKa of 9.
Compound `CN(C)C(=O)CN1CCC(c2cc3c(-c4ccc(=O)n(C5CCC5)c4)ccnc3[nH]2)CC1` showed a logD in data set [1] of 1.9.
Same read-out and setting: next, `COc1cc(F)ccc1-c1ccnc2[nH]c(-c3ccc(CN4CCOCC4)cc3)cc12`: 4.4.
What is called Papp A→B is the apparent permeability from the apical to the basolateral side of a cell layer. With `COc1cc(C(=O)N2CCCC2)ccc1-c1ccnc2[nH]c(C3CCNCC3)cc12`, the Papp A→B in data set [5] is less than 0.01 ×10⁻⁶ cm/s. The compound further came in with a Vd in data set [2] of 5.8 L/kg. Moreover, the pKa in data set [3] amounted to 10.2.
`COCCn1cc(-c2ccnc3[nH]c(C4CCN(CC(=O)N(C)C)CC4)cc23)ccc1=O` came in with a logD in data set [1] of 1.1.
As to `COc1cc(C(=O)N2CCCC2)ccc1-c1ccnc2[nH]c(-c3ccc(CN4CCOCC4)cc3)nc12`, in data set [1], the pH-dependent lipophilicity (logD) was 2.6.
The compound `COc1cc(F)ccc1-c1ccnc2[nH]c(C3CCN(C(C)=O)CC3)cc12` gave a logD in data set [1] of 3.4. This compound also registered a Vd in data set [2] of 1.7 L/kg.
For the compound `COc1cc(=O)n(C)cc1-c1ccnc2[nH]c(C3CCN(CC(=O)N(C)C)CC3)cc12`, the logD in data set [1] was 0.7.
The same measure, in the same setting: next, `CCn1cc(-c2ccnc3[nH]c(C4CCN(CC(=O)N(C)C)CC4)cc23)ccc1=O`: 1.2.
In data set [1], `CNC(=O)CN1CCC(c2cc3c(-c4ccc(=O)n(C(C)C)c4)ccnc3[nH]2)CC1` displayed a logD of 2.2. In addition, in data set [2], the Vd is 2.6 L/kg. Also, the pKa in data set [3] was determined as 6.9.
As for `CC(C)n1cc(-c2ccnc3[nH]c(C4CCN(CC(=O)N(C)C)CC4)cc23)cnc1=O`, the logD in data set [1] came out at 0.4. In data set [2], this compound displayed a Vd of 2.9 L/kg.
Consider `COc1cc(F)ccc1-c1ccnc2[nH]c(C3CCN(CCO)CC3)cc12`, for which, in data set [1], the log distribution coefficient (logD) is 2.4. The volume of distribution (Vd) in data set [2] was determined as 12 L/kg. Besides, the pKa in data set [3] was found to be 8.5.
With `CC(=O)N1CCC(c2cc3c(-c4ccc(=O)n(C(C)C)c4)ccnc3[nH]2)CC1`, in data set [1], the pH-dependent lipophilicity (logD) is 2.1.
The same measure, in the same setting: next, `Cc1nc2ccc(-c3ccnc4[nH]c(C5CCN(CC(=O)N(C)C)CC5)cc34)cc2n1C(C)C`: 3.1; `COc1cc(F)ccc1-c1ccnc2[nH]c(C3CCOCC3)cc12`: 3.9; `COc1cc(F)ccc1-c1ccnc2[nH]c(-c3ccc(CN4CCOCC4)cc3)nc12`: 3.7.
In data set [1], `COc1cc(F)ccc1-c1ccnc2[nH]c(C3CCC(NC(C)=O)C3)nc12` (centres undefined) had a logD of 2.3.
The same measure, in the same setting: next, `CC(C)n1cc(-c2ccnc3[nH]c(C4CCNCC4)cc23)ccc1=O`: -0.2.
Compound `CC(C)n1cc(-c2ccnc3[nH]c(C4CCN(Cc5cccs5)CC4)cc23)ccc1=O` displayed a logD in data set [1] of 3.4. In data set [2], this compound returned a Vd of 1.6 L/kg. The pKa in data set [3] worked out at 6.5.
In data set [1], `COc1cc(F)ccc1-c1ccnc2[nH]c(C3CCNCC3)nc12` registered a logD of 0.
Turning to `COc1cc(C(=O)N2CCCC2)ccc1-c1ccnc2[nH]c(C3CCN(CCO)CC3)cc12`, in data set [1], the log distribution coefficient (logD) was determined as 1.3.
The same measure, in the same setting: next, `CN(C)C(=O)CN1CCC(c2cc3c(-c4ccc(=O)n(C5CCOCC5)c4)ccnc3[nH]2)CC1`: 1.1.
In data set [1], `COc1cc(F)ccc1-c1ccnc2[nH]c(C3CCN(CC(=O)N(C)C)CC3)cc12` returned a logD of 2.9. The same compound returned a Vd in data set [2] of 2.3 L/kg. This compound had a pKa in data set [3] of 8.
As for `CC(C)n1cc(-c2ccnc3[nH]c(C4CCN(CC(=O)N5CCCCC5)CC4)cc23)ccc1=O`, the Drug metabolism result in data set [6] is on record as “Metabolite_Notdetected”. In addition, the Vd in data set [2] was found to be 8.1 L/kg; in data set [4], 1.5 L/kg. In data set [3], the pKa was determined as 7.8.
In data set [2], `CC(C)n1cc(-c2ccnc3[nH]c(C4CCN(CC(=O)N(C)C)CC4)cc23)ccc1=O` gave a Vd of 5.9 L/kg. This compound had a pKa in data set [3] of 7.9.
`CSCCn1cc(-c2ccnc3[nH]c(C4CCN(CC(=O)N(C)C)CC4)cc23)ccc1=O` returned a logD in data set [1] of 1.7.
On to `CN(C)C(=O)CN1CCC(c2cc3c(-c4ccc(=O)n(CCC5CCOCC5)c4)ccnc3[nH]2)CC1`, for which the logD in data set [1] came out at 1.5.
For `COc1cc(C(=O)N2CCCC2)ccc1-c1ccnc2[nH]c(C3CCOCC3)cc12`, the logD in data set [1] was 3. The compound also gave a Vd in data set [2] of 0.8 L/kg.
For `CC(C)n1cc(-c2ccnc3[nH]c(C4CCN(CC(F)F)CC4)cc23)ccc1=O`, the logD in data set [1] came to 2.9. The Vd in data set [2] stood at 1.8 L/kg. Also, in data set [3], the pKa was determined as 6.
Turning to `O=C(c1ccc(-c2ccnc3[nH]c(-c4ccc(CN5CCOCC5)cc4)nc23)cc1)N1CCCC1`, in data set [1], the logD was determined as 3.2.
`CC(C)Cn1cc(-c2ccnc3[nH]c(C4CCN(CC(=O)N(C)C)CC4)cc23)ccc1=O` displayed a logD in data set [1] of 2.
Compound `CC(C)n1nc(-c2ccnc3[nH]c(C4CCN(CC(=O)N(C)C)CC4)cc23)ccc1=O` gave a logD in data set [1] of 2. Further, the Vd in data set [2] is 2.9 L/kg. The compound also had a pKa in data set [3] of 7.6.
In data set [1], `CN(C)C(=O)CN1CCC(c2cc3c(-c4ccc(=O)n(CC5CCOCC5)c4)ccnc3[nH]2)CC1` registered a logD of 1.4.
As for `COc1cc(C(=O)N2CCCC2)ccc1-c1ccnc2[nH]c(C3CCN(C(C)=O)CC3)cc12`, the logD in data set [1] was found to be 2.5. For the same compound, the Vd in data set [2] turned out to be 0.9 L/kg.
The compound `CN(C)C(=O)CN1CCC(c2cc3c(-c4ccc(=O)n(C)c4)ccnc3[nH]2)CC1` showed a logD in data set [1] of 1.1.
For `CC(C)n1cc(-c2ccnc3[nH]c(C4CCN(CC(=O)N5CCCC5)CC4)cc23)ccc1=O`, the Drug metabolism result in data set [6] is “Metabolite_Notdetected”. The Vd in data set [2] stood at 3.9 L/kg; in data set [4], 1.2 L/kg. The compound further returned a pKa in data set [3] of 7.8.
In the case of `COc1cc(F)ccc1-c1ccnc2[nH]c([C@H]3CC[C@H](NC(C)=O)CC3)cc12`, the logD in data set [1] was 3.8. In addition, the Vd in data set [2] came to 2.5 L/kg.

For the origin of these results see ChEMBL document CHEMBL5096204 (J Med Chem, 2021).
